According to patent US9896441B2 (Lycera Corporation, priority 2014, dated 2018):

Experiments:
RORγ-LBD = molecular target: T1, RORγ-LBD (Homo sapiens, UniProt P51449); assay: RORγ-Ligand Binding Domain (LBD) TR-FRET Assay; assay type: biochemical; details: for TR-FRET Assay Max Response: maximum response;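 as to TR-FRET Assay Max Response: 665/615 nm signal ratio set to 100 without ursolic acid or test compound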
T1 construct: made in house; host or cells: SF9 cells (baculovirus); used as diluted lysate
T1 sequence (P51449 269-508 limits assumed): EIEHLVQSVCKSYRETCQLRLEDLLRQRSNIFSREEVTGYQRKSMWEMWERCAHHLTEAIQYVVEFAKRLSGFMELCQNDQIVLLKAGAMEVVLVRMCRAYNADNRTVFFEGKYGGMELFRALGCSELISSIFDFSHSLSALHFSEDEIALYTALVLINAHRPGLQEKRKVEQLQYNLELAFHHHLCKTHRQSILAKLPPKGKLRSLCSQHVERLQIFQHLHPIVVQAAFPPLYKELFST
Method in brief: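 His-tagged RORγ-LBD from SF9 baculovirus lysate, ~3 nM final, in 50 mM Tris pH 7.0, 50 mM KCl, 1 mM EDTA, 0.1 mM DTT, 0.01% BSA. Biotinylated SRC1 LXXLL peptide at 200 nM final with 2 μM ursolic acid; TR-FRET read-out, 1% DMSO final.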

Gal4-RORγ-LBD = molecular target: T2, Gal4-RORγ-LBD (Homo sapiens, UniProt P51449); assay: Gal4-RORγ Luciferase Reporter Assay in HEK-293T Cells; assay type: cell-based; details: HEK-293 cells, luciferase reporter; for Gal4-RORγ Assay Max Response: maximum response
T2 construct: expressed in transfected cells
T2 sequence (P51449 269-508 limits assumed): T1 sequence (P51449 269-508 limits assumed)
Method in brief: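 HEK-293 cells were co-transfected with Gal4-RORγ-LBD and a Gal4-luciferase reporter, then exposed overnight at 37 °C to compounds with […] ursolic acid present (0.2% DMSO). Luminescence was read with One-Glo after 10 min at RT, untreated signal was set as 100, and Max Response was taken as the upper plateau of a 4-parameter logistic fit.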

Row | Compound | EC50 (RORγ-LBD; RORγ-LBD TR-FRET assay) | TR-FRET Assay Max Response (RORγ-LBD; RORγ-LBD TR-FRET assay) | EC50 (Gal4-RORγ-LBD; in presence of ursolic acid) | Gal4-RORγ Assay Max Response (Gal4-RORγ-LBD; in presence of ursolic acid) | EC50 (RORγ-LBD; RORγ-LBD TR-FRET) | EC50 (Gal4-RORγ-LBD; with ursolic acid)
1 | C/C(=C\c1ccc2c(c1)C(S(=O)(=O)c1cccc(C(F)(F)F)c1)CC(CNC(=O)C(C)(C)O)O2)c1c(F)cccc1Cl (stereo not drawn) [Example 182, (E)-N-((6-(2-(2-Chloro-6-fluorophenyl)prop-1-en-1-yl)-4-((3-(trifluoromethyl)phenyl)sulfonyl)chroman-2-yl)methyl)-2-hydroxy-2-methylpropanamide] | < 500 nM | *** (a value in the range of greater than 150 to 200) | < 500 nM | ** (a value in the range of greater than 90 to 150) | – | –
2 | C/C(=C\c1ccc2c(c1)N(S(=O)(=O)c1cccc(C(F)(F)F)c1)C[C@H](CCC(=O)N1CC[C@@H](C(=O)O)C1)O2)c1c(F)cccc1Cl [Example 129B, (R)-1-(3-((S)-6-((E)-2-(2-chloro-6-fluorophenyl)-prop-1-en-1-yl)-4-((3-(trifluoromethyl)phenyl)sulfonyl)-3,4-dihydro-2H-benzo[b][1,4]oxazin-2-yl)propanoyl)pyrrolidine-3-carboxylic acid] | < 500 nM | **** (a value greater than 200) | < 500 nM | ** (a value in the range of greater than 90 to 150) | – | –
3 | CCOc1nn(CC)cc1S(=O)(=O)N1C[C@H](CCC(=O)OC)Oc2ccc(/C=C/c3ccccc3OC(F)(F)F)cc21 [Example 89BB, (S,E)-methyl 3-(4-((3-ethoxy-1-ethyl-1H-pyrazol-4-yl)sulfonyl)-6-(2-(trifluoromethoxy)styryl)-3,4-dihydro-2H-benzo[b][1,4]-oxazin-2-yl)propanoate] | – | – | – | – | < 500 nM | 500 to 5000 nM
4 | CCOc1nn(CC)cc1S(=O)(=O)N1C[C@H](CCC(=O)O)Oc2ccc(/C=C/c3cccs3)cc21 [Example 89O, (S,E)-3-(4-((3-ethoxy-1-ethyl-1H-pyrazol-4-yl)sulfonyl)-6-(2-(thiophen-2-yl)vinyl)-3,4-dihydro-2H-benzo[b][1,4]oxazin-2-yl)propanoic acid] | – | – | – | – | < 500 nM | > 10000 nM
5 | C/C(=C\c1ccc2c(c1)N(S(=O)(=O)c1cccc(C(F)(F)F)c1)C[C@H](CCC(=O)N1CC(C)(C(=O)O)C1)O2)c1c(F)cccc1Cl [Example 129I, (S,E)-1-(3-(6-(2-(2-chloro-6-fluorophenyl)-prop-1-en-1-yl)-4-((3-(trifluoromethyl)phenyl)sulfonyl)-3,4-dihydro-2H-benzo[b][1,4]oxazin-2-yl)propanoyl)-3-methylazetidine-3-carboxylic acid] | < 500 nM | *** (a value in the range of greater than 150 to 200) | < 500 nM | ** (a value in the range of greater than 90 to 150) | – | –
6 | CC(C)(CC1CC(S(=O)(=O)c2cccc(C(F)(F)F)c2)c2cc(OCc3c(F)cccc3Cl)ccc2O1)C(=O)O (stereo not drawn) [Example 186E, 3-(6-((2-chloro-6-fluorobenzyl)oxy)-4-((3-(trifluoromethyl)phenyl)-sulfonyl)chroman-2-yl)-2,2-dimethylpropanoic acid] | < 500 nM | ** (a value in the range of greater than 90 to 150) | 500 to 5000 nM | ** (a value in the range of greater than 90 to 150) | – | –
7 | COc1cc(S(=O)(=O)N2C[C@H](CNC(=O)CCC(=O)O)Oc3ccc(/C=C(\C)c4c(F)cccc4Cl)cc32)ccc1F [Example 132, (S,E)-4-(((6-(2-(2-Chloro-6-fluorophenyl)prop-1-en-1-yl)-4-((4-fluoro-3-methoxyphenyl)sulfonyl)-3,4-dihydro-2H-benzo[b][1,4]oxazin-2-yl)methyl)amino)-4-oxobutanoic acid] | < 500 nM | **** (a value greater than 200) | 500 to 5000 nM | *** (a value in the range of greater than 150 to 200) | – | –
